Laboratory results reported in patent US11266655B2, “Methods and compositions for treating urea cycle disorders” (Camp4 Therapeutics Corporation, priority 2019, dated 2022).
Values joined by “and” are separate entries in the source; they are usually repeats but may differ in a detail not shown here. Equal entries are not always repeated. Structures can show the parent of a compound that is named as a salt. Where two headings read alike, the source gives them in different places.

Columns and labels:
SLC25A15 = experiment: RNA-seq of compound-treated primary human hepatocytes, SLC25A15 expression; type: cell-based
NAGS = type: cell-based, human
ARG1 = experiment: RNA-seq of compound-treated primary human hepatocytes, ARG1 expression; type: cell-based; conditions: primary human hepatocytes, triplicate (Table 17, FIG. 9)
SLC25A13 = experiment: RNA-seq of compound-treated primary human hepatocytes, SLC25A13 expression; type: cell-based; conditions: primary human hepatocytes, triplicate (Table 23, FIG. 15)
CPS1 [1] = experiment: RNA-seq of compound-treated primary human hepatocytes, CPS1 expression; type: cell-based; conditions: primary human hepatocytes, triplicate (Table 19, FIG. 11)
ASS1 = experiment: RNA-seq of compound-treated primary human hepatocytes, ASS1 expression; type: cell-based; conditions: 10 μM, primary human hepatocytes, triplicate (Table 15, FIG. 7)
CPS1 [2] = experiment: JAK1 inhibitor dose titration in hepatocytes of donors A and B, CPS1 mRNA normalized to B2M; type: cell-based, human; conditions: normalized to B2M
Description: (§1) Next, two JAK1 inhibitors were tested at increasing concentrations in a dose titration assy. Hepatocytes from two different donors (A and B) were incubated with the various concentrations of upadacitinib or oclacitinib maleate and harvested for mRNA analysis. OTC and CPS1 mRNA were normalized to house keeping gene B2M gene expression.

OTC [3] = experiment: JAK1 inhibitor dose titration in hepatocytes of donors A and B, OTC mRNA normalized to B2M; type: cell-based, human; conditions: normalized to B2M
Description: as §1

CPS1 [4] = experiment: JAK inhibitors at 0.3 and 3 μM in primary human hepatocytes, CPS1 mRNA fold change; type: cell-based; conditions: fold change vs DMSO
Description: (§2) Additional small molecules that inhibit JAK1, JAK2, JAK3, or a combination of the JAK proteins were tested in primary human hepatocytes as described in Example 2. JAK inhibitors were tested in triplicate at 0.3 μM and 3 μM. The results are shown as the fold change (mRNA FC) in the mRNA levels of OTC and CPS1 genes after treatment compared to an untreated control (DMSO) and the standard deviation (SD).

OTC [5] = experiment: JAK inhibitors at 0.3 and 3 μM in primary human hepatocytes, OTC mRNA fold change; type: cell-based; conditions: fold change vs DMSO
Description: as §2

OTC [6] = experiment: HSP90 or HSP70 inhibitors in primary human hepatocytes, OTC mRNA; type: cell-based; conditions: hepatocytes from Donor B, normalized to B2M
Description: (§3) Additional small molecules that inhibit HSP90 or HSP70 were tested in primary human hepatocytes as described in Example 2. HSP90 or HSP70 inhibitors were tested in triplicate at 0.3 μM and 3 μM. The results are shown as the fold change (mRNA FC) in the mRNA levels of OTC and CPS1 genes after treatment compared to an untreated control (DMSO) and the standard deviation (SD). In addition, a dose titration experiment was performed with selected HSP90 inhibitors. Hepatocytes were incubated with increasing concentrations of HSP90 inhibitors and the changes in OTC and CPS1 expression quantified as previously described.
(§4) HSP90 and HSP70 inhibitors were compared to confirm the role of HSP90 in modulating OTC and CPS1 expression. Hepatocytes from Donor B were incubated with various HSP90 inhibitors or an HSP70 inhibitor, Pifithrin-μ, and then harvested for mRNA quantification. OTC and CPS1 mRNA levels were normalized to B2M.

CPS1 [7] = experiment: HSP90 or HSP70 inhibitors in primary human hepatocytes, CPS1 mRNA; type: cell-based; conditions: hepatocytes from Donor B, normalized to B2M
Description: as §3, §4

CCNC(=O)Nc1ccc(-c2nc(N3CCOC[C@@H]3C)c3c(n2)C(C)(C)S(=O)(=O)C3)cc1 [CZ415]
Relative SLC25A15 level vs Untreated (±Standard Deviation) (SLC25A15): 1.61 ± 0.19 and 1.52 ± 0.17
Relative NAGS level vs Untreated (±Standard Deviation) (NAGS): 2.00 ± 0.27
increase in NAGS gene expression (Tables 21, 22, FIG. 13, 14) (NAGS): greatest increase
Relative ARGI level vs Untreated (±Standard Deviation) (ARG1; 3 μM): 1.35 ± 0.12
Relative SLC25A13 level vs Untreated (±Standard Deviation) (SLC25A13; 3 μM): 1.61 ± 0.19
Relative SLC25A13 level vs Untreated (±Standard Deviation) (SLC25A13; 10 μM): 1.52 ± 0.17
Relative CPS1 level vs Untreated (±Standard Deviation) (CPS1 [1]; 1 μM): 1.32 ± 0.04
Relative ASS1 level vs Untreated (±Standard Deviation) (ASS1): 1.65 ± 0.11

CC[C@@H]1CN(C(=O)NCC(F)(F)F)C[C@@H]1c1cnc2cnc3[nH]ccc3n12 [upadacitinib]
CPS1 mRNA FC, Donor A (CPS1 [2]; 0.1 uM): 1.26
CPS1 mRNA FC, Donor B (CPS1 [2]; 0.1 uM): 3.74
CPS1 mRNA FC, Donor A (CPS1 [2]; 0.3 uM): 1.58
CPS1 mRNA FC, Donor B (CPS1 [2]; 0.3 uM): 2.54
CPS1 mRNA FC, Donor A (CPS1 [2]; 1 uM): 2.70
CPS1 mRNA FC, Donor B (CPS1 [2]; 1 uM): 2.38
CPS1 mRNA FC, Donor A (CPS1 [2]; 3 uM): 3.15
CPS1 mRNA FC, Donor B (CPS1 [2]; 3 uM): 1.43
CPS1 mRNA FC, Donor A (CPS1 [2]; 10 uM): 4.25
CPS1 mRNA FC, Donor B (CPS1 [2]; 10 uM): 1.21
OTC mRNA FC, Donor A (OTC [3]; 0.1 uM): 1.36
OTC mRNA FC, Donor B (OTC [3]; 0.1 uM): 1.56
OTC mRNA FC, Donor A (OTC [3]; 0.3 uM): 1.99
OTC mRNA FC, Donor B (OTC [3]; 0.3 uM): 2.06
OTC mRNA FC, Donor A (OTC [3]; 1 uM): 3.17
OTC mRNA FC, Donor B (OTC [3]; 1 uM): 3.54
OTC mRNA FC, Donor A (OTC [3]; 3 uM): 4.81
OTC mRNA FC, Donor B (OTC [3]; 3 uM): 4.66
OTC mRNA FC, Donor A (OTC [3]; 10 uM): 6.77
OTC mRNA FC, Donor B (OTC [3]; 10 uM): 9.39
CPS1 mRNA FC (CPS1 [4]; 0.3 uM): 2.02
CPS1 mRNA FC (CPS1 [4]; 3 uM): 1.39
OTC mRNA FC (OTC [5]; 0.3 uM): 2.91
OTC mRNA FC (OTC [5]; 3 uM): 2.75

COc1ccc(-c2ccc3c(N4CCOC[C@@H]4C)nc(N4CCOC[C@@H]4C)nc3n2)cc1CO [AZD-8055]
Relative SLC25A15 level vs Untreated (±Standard Deviation) (SLC25A15; 3 μM, primary human hepatocytes, triplicate (Table 24, FIG. 16A-B)): 1.3 ± 0.06
Relative SLC25A15 level vs Untreated (±Standard Deviation) (SLC25A15; 10 μM, primary human hepatocytes, triplicate (Table 24, FIG. 16A-B)): 1.64 ± 0.09
Relative NAGS level vs Untreated (±Standard Deviation) (NAGS; 10 μM, primary human hepatocytes, triplicate (Table 21, FIG. 13)): 1.43 ± 0.01
Relative ARGI level vs Untreated (±Standard Deviation) (ARG1; 0.3 μM): 1.44 ± 0.09
Relative ARGI level vs Untreated (±Standard Deviation) (ARG1; 1 μM): 1.43 ± 0.25
Relative ARGI level vs Untreated (±Standard Deviation) (ARG1; 3 μM): 1.36 ± 0.07
Relative SLC25A13 level vs Untreated (±Standard Deviation) (SLC25A13; 3 μM): 1.35 ± 0.06
Relative SLC25A13 level vs Untreated (±Standard Deviation) (SLC25A13; 10 μM): 1.64 ± 0.09
Relative CPS1 level vs Untreated (±Standard Deviation) (CPS1 [1]; 1 μM): 1.42 ± 0.24
Relative ASS1 level vs Untreated (±Standard Deviation) (ASS1): 1.66 ± 0.11

CO[C@H]1/C=C\C=C(/C)C(=O)NC2=CC(=O)C(NCCN(C)C)=C(C[C@@H](C)C[C@H](OC)[C@H](O)[C@@H](C)/C=C(\C)[C@@H]1OC(N)=O)C2=O [Alvespimycin hydrochloride]
OTC Expression mRNA FC (OTC [6]; 0.3 uM): 1.94
OTC Expression mRNA FC (OTC [6]; 3 uM): 1.03
CPS1 Expression mRNA FC (CPS1 [7]; 0.3 uM): 1.41
CPS1 Expression mRNA FC (CPS1 [7]; 3 uM): 1.54

CC1(C)CC(=O)c2c(C(F)(F)F)nn(-c3ccc(C(N)=O)c(N[C@H]4CC[C@H](OC(=O)CN)CC4)c3)c2C1 [PF-04929113]
OTC Expression mRNA FC (OTC [6]; 0.3 uM): 1.77
OTC Expression mRNA FC (OTC [6]; 3 uM): 4.28
CPS1 Expression mRNA FC (CPS1 [7]; 0.3 uM): 1.62
CPS1 Expression mRNA FC (CPS1 [7]; 3 uM): 2.09
Relative CPS1 level vs Untreated (±Standard Deviation) (CPS1 [1]; 3 μM): 1.38 ± 0.13
